# Experimental data as given in ChEMBL document CHEMBL3576765, “Rubrumazines A-C, Indolediketopiperazines of the Isoechinulin Class from Eurotium rubrum MA-150, a Fungus Obtained from Marine Mangrove-Derived Rhizospheric Soil” (J Nat Prod, 2015).
# Test system: Artemia salina
# Assay: (§1) Toxicity in brine shrimp assessed as mortality
# Assay type: organism-based
# Conditions: in vivo; call rule not given here
row,SMILES,LD50
1,C=CC(C)(C)c1[nH]c2ccc(CC=C(C)C)cc2c1C[C@@H]1NC(=O)[C@H](C)NC1=O [TARDIOXOPIPERAZINE A],Not Active
2,C=CC(C)(C)c1[nH]c2ccc(CC=C(C)C)c(CC=C(C)C)c2c1C[C@@H]1NC(=O)[C@H](C)NC1=O [VARIECOLORIN L],Not Active
3,C=CC(C)(C)c1[nH]c2c(CC=C(C)C)cc(CC=C(C)C)cc2c1C[C@@H]1NC(=O)[C@H](C)NC1=O [ECHINULIN],Not Active

# Test system: not listed separately
# Assay: as §1
# Assay type: organism-based
# Conditions: artemia salina, in vivo; read-out: LD50 (the source's name)
row,SMILES,LC50 [µM]
1,C=CC(C)(C)c1[nH]c2ccccc2c1/C=C1\NC(=O)C2(C=C3c4cc(O)cc(O)c4C(=O)c4c(O)cc(C)c(c43)O2)NC1=O (stereo unspecified),16.7
2,C=CC(C)(C)c1[nH]c2c(C[C@H](O)C(C)(C)O)cccc2c1/C=C1\NC(=O)[C@H](C)NC1=O,2.4
3,C=CC(C)(C)c1[nH]c2c(C[C@H](O)C(C)(C)OC)cccc2c1/C=C1\NC(=O)[C@H](C)NC1=O,29.8
4,C=CC(C)(C)c1[nH]c2c(C[C@H](O)C(C)(C)O)cccc2c1C[C@@H]1NC(=O)[C@H](C)NC1=O,16.5
5,COc1cc2c(c(OC)c1OC)-c1ccc(OC)c(=O)cc1[C@@H](NC(C)=O)CC2 [COLCHICINE],19.4
6,C=CC(C)(C)c1[nH]c2ccc(CC=C(C)C)cc2c1/C=C1\NC(=O)[C@H](C)NC1=O [ISOECHINULIN A],11.7
7,C=CC(C)(C)c1[nH]c2c(CC=C(C)C)cccc2c1/C=C1\NC(=O)[C@H](C)NC1=O [VARIECOLORIN G],22
8,C=CC(C)(C)c1[nH]c2ccc(CC(=O)C(C)C)cc2c1/C=C1\NC(=O)[C@H](C)NC1=O [VARIECOLORIN E],24
9,C=CC(C)(C)c1[nH]c2ccccc2c1/C=C1\NC(=O)C2(C=C3c4cc(O)cc(OC)c4C(=O)c4c(O)cc(C)c(c43)O2)NC1=O (stereo unspecified),9.8
10,C[C@@H]1NC(=O)[C@H](Cc2c[nH]c3ccccc23)NC1=O,25.5
11,C=CC(C)(C)c1[nH]c2c(CC=C(C)C)cc(CC=C(C)C)c(CC=C(C)C)c2c1/C=C1\NC(=O)[C@H](C)NC1=O,3.5
12,C=CC(C)(C)c1[nH]c2ccccc2c1/C=C1\NC(=O)C(=O)NC1=O,3.9

# Test system: Vibrio alginolyticus
# Assay: Antibacterial activity against Vibrio alginolyticus by well diffusion method
# Assay type: functional
# Conditions: not given
row,SMILES,MIC [µg/mL]
1,O=C(N[C@H](CO)[C@H](O)c1ccc([N+](=O)[O-])cc1)C(Cl)Cl [CHLORAMPHENICOL],4
